# PubChem BioAssay (NCI)
#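 Five concentrations, 48 hours, 96-well plates. Here, GI50 denotes the concentration required for 50% inhibition of growth. TGI is the concentration that stops growth completely.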
# Columns and labels:
# Test in all cases: DTP human tumour cell line panel, 48 h
# UACC-62 melanoma = tested on: UACC-62 melanoma
# SF-539 CNS = tested on: SF-539 CNS
# DU-145 prostate = tested on: DU-145 prostate
# NCI-H226 lung = tested on: NCI-H226 lung
# HOP-62 NSCLC = tested on: HOP-62 NSCLC
# CCRF-CEM leukemia = tested on: CCRF-CEM leukemia
# MCF7 breast = tested on: MCF7 breast
# NCI-H23 lung = tested on: NCI-H23 lung
# T-47D breast = tested on: T-47D breast
# LOX IMVI melanoma = tested on: LOX IMVI melanoma
# SF-268 CNS = tested on: SF-268 CNS
# OVCAR-5 ovarian = tested on: OVCAR-5 ovarian
# CAKI-1 renal = tested on: CAKI-1 renal
# SNB-75 CNS = tested on: SNB-75 CNS
# HCC-2998 colon = tested on: HCC-2998 colon
# MDA-MB-435 = tested on: MDA-MB-435
# NCI/ADR-RES ovarian = tested on: NCI/ADR-RES ovarian
# 786-0 renal = tested on: 786-0 renal
# M14 melanoma = tested on: M14 melanoma
# EKVX NSCLC = tested on: EKVX NSCLC
# SK-OV-3 ovarian = tested on: SK-OV-3 ovarian
# HCT-116 colon = tested on: HCT-116 colon
# HT29 colon = tested on: HT29 colon
# SK-MEL-5 melanoma = tested on: SK-MEL-5 melanoma
# KM12 colon = tested on: KM12 colon
# MOLT-4 leukemia = tested on: MOLT-4 leukemia
# RPMI-8226 leukemia = tested on: RPMI-8226 leukemia
# SF-295 CNS = tested on: SF-295 CNS
# U251 CNS = tested on: U251 CNS
# SNB-19 CNS = tested on: SNB-19 CNS
# COLO 205 colon = tested on: COLO 205 colon
# SK-MEL-28 melanoma = tested on: SK-MEL-28 melanoma
# HL-60(TB) leukemia = tested on: HL-60(TB) leukemia
# OVCAR-4 ovarian = tested on: OVCAR-4 ovarian
# HOP-92 NSCLC = tested on: HOP-92 NSCLC
# SK-MEL-2 melanoma = tested on: SK-MEL-2 melanoma
# SW-620 colon = tested on: SW-620 colon
# NCI-H460 lung = tested on: NCI-H460 lung
# SN12C renal = tested on: SN12C renal
# UO-31 renal = tested on: UO-31 renal
# HCT-15 colon = tested on: HCT-15 colon
# ACHN renal = tested on: ACHN renal
# K-562 leukemia = tested on: K-562 leukemia
# OVCAR-3 ovarian = tested on: OVCAR-3 ovarian
# SR leukemia = tested on: SR leukemia
# MDA-MB-231 breast = tested on: MDA-MB-231 breast
# PC-3 prostate = tested on: PC-3 prostate
# A498 renal = tested on: A498 renal
# IGROV1 ovarian = tested on: IGROV1 ovarian
# NCI-H522 lung = tested on: NCI-H522 lung
# A549 NSCLC = tested on: A549 NSCLC
# MALME-3M melanoma = tested on: MALME-3M melanoma
# HS 578T breast = tested on: HS 578T breast
# TK-10 renal = tested on: TK-10 renal
# BT-549 breast = tested on: BT-549 breast
# UACC-257 melanoma = tested on: UACC-257 melanoma
# RXF 393 renal = tested on: RXF 393 renal
# OVCAR-8 ovarian = tested on: OVCAR-8 ovarian
structure (smiles),measurement,setting,value
Cc1sc(C(=O)Nc2cc(C(=O)NCCCN(C)C)n(C)c2)cc1NC(=O)CCCN1C(=O)c2cccc3cccc(c23)C1=O,GI50,UACC-62 melanoma,> 100 µM
same,TGI,UACC-62 melanoma,> 100 µM
same,GI50,SF-539 CNS,> 100 µM
same,TGI,SF-539 CNS,> 100 µM
same,GI50,DU-145 prostate,> 100 µM
same,TGI,DU-145 prostate,> 100 µM
same,GI50,NCI-H226 lung,> 100 µM
same,TGI,NCI-H226 lung,> 100 µM
same,GI50,HOP-62 NSCLC,> 100 µM
same,TGI,HOP-62 NSCLC,> 100 µM
same,GI50,CCRF-CEM leukemia,> 100 µM
same,TGI,CCRF-CEM leukemia,> 100 µM
same,GI50,MCF7 breast,> 100 µM
same,TGI,MCF7 breast,> 100 µM
same,GI50,NCI-H23 lung,> 100 µM
same,TGI,NCI-H23 lung,> 100 µM
same,GI50,T-47D breast,> 100 µM
same,TGI,T-47D breast,> 100 µM
same,GI50,LOX IMVI melanoma,> 100 µM
same,TGI,LOX IMVI melanoma,> 100 µM
same,GI50,SF-268 CNS,> 100 µM
same,TGI,SF-268 CNS,> 100 µM
same,GI50,OVCAR-5 ovarian,> 100 µM
same,TGI,OVCAR-5 ovarian,> 100 µM
same,GI50,CAKI-1 renal,> 100 µM
same,TGI,CAKI-1 renal,> 100 µM
same,GI50,SNB-75 CNS,> 100 µM
same,TGI,SNB-75 CNS,> 100 µM
same,GI50,HCC-2998 colon,> 100 µM
same,TGI,HCC-2998 colon,> 100 µM
same,GI50,MDA-MB-435,> 100 µM
same,TGI,MDA-MB-435,> 100 µM
same,GI50,NCI/ADR-RES ovarian,> 100 µM
same,TGI,NCI/ADR-RES ovarian,> 100 µM
same,GI50,786-0 renal,> 100 µM
same,TGI,786-0 renal,> 100 µM
same,GI50,M14 melanoma,> 100 µM
same,TGI,M14 melanoma,> 100 µM
same,GI50,EKVX NSCLC,> 100 µM
same,TGI,EKVX NSCLC,> 100 µM
same,GI50,SK-OV-3 ovarian,> 100 µM
same,TGI,SK-OV-3 ovarian,> 100 µM
same,GI50,HCT-116 colon,> 100 µM
same,TGI,HCT-116 colon,> 100 µM
same,GI50,HT29 colon,> 100 µM
same,TGI,HT29 colon,> 100 µM
same,GI50,SK-MEL-5 melanoma,38.2 µM
same,TGI,SK-MEL-5 melanoma,> 100 µM
same,GI50,KM12 colon,> 100 µM
same,TGI,KM12 colon,> 100 µM
same,GI50,MOLT-4 leukemia,88.3 µM
same,TGI,MOLT-4 leukemia,> 100 µM
same,GI50,RPMI-8226 leukemia,> 100 µM
same,TGI,RPMI-8226 leukemia,> 100 µM
same,GI50,SF-295 CNS,> 100 µM
same,TGI,SF-295 CNS,> 100 µM
same,GI50,U251 CNS,> 100 µM
same,TGI,U251 CNS,> 100 µM
same,GI50,SNB-19 CNS,> 100 µM
same,TGI,SNB-19 CNS,> 100 µM
same,GI50,COLO 205 colon,> 100 µM
same,TGI,COLO 205 colon,> 100 µM
same,GI50,SK-MEL-28 melanoma,> 100 µM
same,TGI,SK-MEL-28 melanoma,> 100 µM
same,GI50,HL-60(TB) leukemia,> 100 µM
same,TGI,HL-60(TB) leukemia,> 100 µM
same,GI50,OVCAR-4 ovarian,41 µM
same,TGI,OVCAR-4 ovarian,> 100 µM
same,GI50,HOP-92 NSCLC,> 100 µM
same,TGI,HOP-92 NSCLC,> 100 µM
same,GI50,SK-MEL-2 melanoma,> 100 µM
same,TGI,SK-MEL-2 melanoma,> 100 µM
same,GI50,SW-620 colon,> 100 µM
same,TGI,SW-620 colon,> 100 µM
same,GI50,NCI-H460 lung,> 100 µM
same,TGI,NCI-H460 lung,> 100 µM
same,GI50,SN12C renal,> 100 µM
same,TGI,SN12C renal,> 100 µM
same,GI50,UO-31 renal,> 100 µM
same,TGI,UO-31 renal,> 100 µM
same,GI50,HCT-15 colon,> 100 µM
same,TGI,HCT-15 colon,> 100 µM
same,GI50,ACHN renal,> 100 µM
same,TGI,ACHN renal,> 100 µM
same,GI50,K-562 leukemia,> 100 µM
same,TGI,K-562 leukemia,> 100 µM
same,GI50,OVCAR-3 ovarian,> 100 µM
same,TGI,OVCAR-3 ovarian,> 100 µM
same,GI50,SR leukemia,> 100 µM
same,TGI,SR leukemia,> 100 µM
same,GI50,MDA-MB-231 breast,> 100 µM
same,TGI,MDA-MB-231 breast,> 100 µM
same,GI50,PC-3 prostate,> 100 µM
same,TGI,PC-3 prostate,> 100 µM
same,GI50,A498 renal,> 100 µM
same,TGI,A498 renal,> 100 µM
same,GI50,IGROV1 ovarian,> 100 µM
same,TGI,IGROV1 ovarian,> 100 µM
same,GI50,NCI-H522 lung,> 100 µM
same,TGI,NCI-H522 lung,> 100 µM
same,GI50,A549 NSCLC,> 100 µM
same,TGI,A549 NSCLC,> 100 µM
same,GI50,MALME-3M melanoma,26 µM
same,TGI,MALME-3M melanoma,> 100 µM
same,GI50,HS 578T breast,> 100 µM
same,TGI,HS 578T breast,> 100 µM
same,GI50,TK-10 renal,> 100 µM
same,TGI,TK-10 renal,> 100 µM
CCCCN1CCN(c2ccc3nc(-c4ccc5nc(-c6ccc(C(F)(F)F)cc6)[nH]c5c4)[nH]c3c2)CC1,GI50,UACC-62 melanoma,1.58 µM
same,TGI,UACC-62 melanoma,3.11 µM
same,GI50,SF-539 CNS,1.59 µM
same,TGI,SF-539 CNS,3.02 µM
same,GI50,BT-549 breast,1.61 µM
same,TGI,BT-549 breast,3.1 µM
same,GI50,DU-145 prostate,0.915 µM
same,TGI,DU-145 prostate,2.36 µM
same,GI50,HOP-62 NSCLC,1.54 µM
same,TGI,HOP-62 NSCLC,2.98 µM
same,GI50,UACC-257 melanoma,1.78 µM
same,TGI,UACC-257 melanoma,3.41 µM
same,GI50,CCRF-CEM leukemia,0.289 µM
same,TGI,CCRF-CEM leukemia,0.945 µM
same,GI50,NCI-H23 lung,1.68 µM
same,TGI,NCI-H23 lung,3.42 µM
same,GI50,T-47D breast,1.38 µM
same,TGI,T-47D breast,3.19 µM
same,GI50,LOX IMVI melanoma,0.839 µM
same,TGI,LOX IMVI melanoma,2.27 µM
same,GI50,SF-268 CNS,1.74 µM
same,TGI,SF-268 CNS,3.43 µM
same,GI50,OVCAR-5 ovarian,1.87 µM
same,TGI,OVCAR-5 ovarian,3.32 µM
same,GI50,CAKI-1 renal,1.38 µM
same,TGI,CAKI-1 renal,2.69 µM
same,GI50,SNB-75 CNS,1.11 µM
same,TGI,SNB-75 CNS,2.34 µM
same,GI50,HCC-2998 colon,1.84 µM
same,TGI,HCC-2998 colon,3.55 µM
same,GI50,MDA-MB-435,1.59 µM
same,TGI,MDA-MB-435,3.01 µM
same,GI50,NCI/ADR-RES ovarian,3.24 µM
same,TGI,NCI/ADR-RES ovarian,> 75.9 µM
same,GI50,M14 melanoma,1.34 µM
same,TGI,M14 melanoma,2.8 µM
same,GI50,EKVX NSCLC,1.57 µM
same,TGI,EKVX NSCLC,3.07 µM
same,GI50,SK-OV-3 ovarian,1.91 µM
same,TGI,SK-OV-3 ovarian,3.39 µM
same,GI50,HCT-116 colon,0.348 µM
same,TGI,HCT-116 colon,1.27 µM
same,GI50,HT29 colon,0.385 µM
same,TGI,HT29 colon,1.45 µM
same,GI50,SK-MEL-5 melanoma,1.6 µM
same,TGI,SK-MEL-5 melanoma,3.09 µM
same,GI50,KM12 colon,1.12 µM
same,TGI,KM12 colon,2.68 µM
same,GI50,MOLT-4 leukemia,1.07 µM
same,TGI,MOLT-4 leukemia,2.59 µM
same,GI50,RPMI-8226 leukemia,0.201 µM
same,TGI,RPMI-8226 leukemia,0.475 µM
same,GI50,SF-295 CNS,1.48 µM
same,TGI,SF-295 CNS,2.95 µM
same,GI50,U251 CNS,1.59 µM
same,TGI,U251 CNS,2.96 µM
same,GI50,COLO 205 colon,1.45 µM
same,TGI,COLO 205 colon,2.95 µM
same,GI50,SK-MEL-28 melanoma,1.69 µM
same,TGI,SK-MEL-28 melanoma,3.19 µM
same,GI50,HL-60(TB) leukemia,0.923 µM
same,TGI,HL-60(TB) leukemia,2.63 µM
same,GI50,OVCAR-4 ovarian,0.859 µM
same,TGI,OVCAR-4 ovarian,2.39 µM
same,GI50,HOP-92 NSCLC,1.19 µM
same,TGI,HOP-92 NSCLC,2.64 µM
same,GI50,SK-MEL-2 melanoma,1.76 µM
same,TGI,SK-MEL-2 melanoma,3.31 µM
same,GI50,SW-620 colon,0.297 µM
same,TGI,SW-620 colon,0.841 µM
same,GI50,RXF 393 renal,1.13 µM
same,TGI,RXF 393 renal,2.49 µM
same,GI50,NCI-H460 lung,0.64 µM
same,TGI,NCI-H460 lung,1.33 µM
same,GI50,SN12C renal,1.61 µM
same,TGI,SN12C renal,3.21 µM
same,GI50,UO-31 renal,1.75 µM
same,TGI,UO-31 renal,3.24 µM
same,GI50,HCT-15 colon,0.303 µM
same,TGI,HCT-15 colon,1.1 µM
same,GI50,ACHN renal,1.38 µM
same,TGI,ACHN renal,2.68 µM
same,GI50,OVCAR-3 ovarian,0.614 µM
same,TGI,OVCAR-3 ovarian,1.12 µM
same,GI50,MDA-MB-231 breast,1.47 µM
same,TGI,MDA-MB-231 breast,2.94 µM
same,GI50,PC-3 prostate,0.962 µM
same,TGI,PC-3 prostate,2.31 µM
same,GI50,A498 renal,1.78 µM
same,TGI,A498 renal,3.45 µM
same,GI50,NCI-H522 lung,1.78 µM
same,TGI,NCI-H522 lung,3.49 µM
same,GI50,OVCAR-8 ovarian,1.24 µM
same,TGI,OVCAR-8 ovarian,2.64 µM
same,GI50,A549 NSCLC,0.926 µM
same,TGI,A549 NSCLC,2.24 µM
same,GI50,HS 578T breast,1.82 µM
same,TGI,HS 578T breast,3.73 µM
same,GI50,TK-10 renal,2.21 µM
same,TGI,TK-10 renal,3.68 µM
